Reference: US20020137929A1, “1 - (3-heterocyclylphenyl) isothiourea, -isourea, -guanidine and -amidine herbicidal agents” (Intellectual Property Department, BASF Aktiengesellschaft, priority 1998, published 2002)

Columns and labels:
CYPSE (Flatsedge) [1] = assay: Postemergence weed control under flooded paddy conditions; assay type: in vivo, Cyperus serotinus; settings: postemergence weeds, rated 3 to 4 weeks after treatment
Outline: (§1)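 With weeds 3 to 5 cm tall and rice at the 1.5 to 2.5 leaf stage, containers were flooded and water held 1.5 to 3 cm above soil. Compounds in 50/50 v/v aqueous/acetone went into the flood water at about 0.0313 to 0.500 kg/ha a.i. Effects were visually rated 0–9 against controls after three to four weeks in the greenhouse.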

ZEAMX (Corn, Field) = assay: Postemergence herbicidal evaluation; assay type: in vivo, Zea mays; settings: postemergence
Outline: (§2)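 Visual 0–9 rating versus control (stand, vigor, malformation, size, chlorosis, overall appearance), taken four to five weeks post-spray. Two-week-old seedlings received roughly 0.0156–0.500 kg/ha active in acetone/water (50/50) with 0.5% TWEEN 20 via nozzle at 40 psi.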

CYPSE (Flatsedge) [2] = assay: Preemergence weed control under flooded paddy conditions; assay type: in vivo, Cyperus serotinus; settings: rated 3-4 weeks after treatment
Outline: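 Visual injury scored 0-9 against control three to four weeks post-treatment, greenhouse-grown. Application: acetone/water (50/50) solutions dosed directly into flood water (1.5-3 cm over silt loam, planted top 0.5 cm), roughly 0.0313 to 0.500 kg/ha active ingredient.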

AMBEL (Ragweed, Common) [3] = assay: Postemergence herbicidal evaluation; assay type: in vivo, Ambrosia artemisifolia; settings: postemergence
Outline: as §2

ORYSAT (Rice, Tebonnet) = assay: Postemergence herbicidal evaluation; assay type: in vivo, Oryza sativa, (L.) Tebonnet; settings: postemergence
Outline: as §2

AMBEL (Ragweed, Common) [4] = assay: Preemergence herbicidal evaluation; assay type: in vivo, Ambrosia artemisifolia; settings: preemergence, rated 4-5 weeks after treatment, 0-9 scale
Outline: (§3)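 Scores (0–9) reflect visual comparison with control plants for stand, vigor, malformation, size and chlorosis. Compound was applied to the soil after sowing, before emergence, as an aqueous acetone spray (about 0.0156–0.500 kg/ha), and cups were kept in a greenhouse for 4–5 weeks.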

GALAP (Galium) = assay: Preemergence herbicidal evaluation; assay type: in vivo, Galium aparine; settings: preemergence, rated 4-5 weeks after treatment, 0-9 scale
Outline: as §3

CASOB (Sicklepod) = assay: Preemergence herbicidal evaluation; assay type: in vivo, Cassia obtusifolia; settings: preemergence, rated 4-5 weeks after treatment, 0-9 scale
Outline: as §3

[5] = tested on: GLXMAW (Soybean, Williams); assay: Postemergence herbicidal evaluation; assay type: in vivo, Glycine max, (L.) Merr. cv Williams; settings: postemergence
Outline: as §2

ABUTH (Velvetleaf) = assay: Postemergence herbicidal evaluation; assay type: in vivo, Abutilon theophrasti; settings: postemergence
Outline: as §2

[6] = tested on: CHEAL (Lambsquarters, Common); assay: Postemergence herbicidal evaluation; assay type: in vivo, Chenopodium album; settings: postemergence
Outline: as §2

[7] = tested on: CHEAL (Lambsquarters, Common); assay: Preemergence herbicidal evaluation; assay type: in vivo, Chenopodium album; settings: preemergence, rated 4-5 weeks after treatment, 0-9 scale
Outline: as §3

ECHCG (Barnyardgrass) = assay: Postemergence herbicidal evaluation; assay type: in vivo, Echinochloa crus-galli; settings: postemergence
Outline: as §2

CYPIR (Rice Flatsedge) = assay: Postemergence weed control under flooded paddy conditions; assay type: in vivo, Cyperus iria; settings: postemergence weeds, rated 3 to 4 weeks after treatment
Outline: as §1

`CN1C(=O)C(CC(=O)OCCF)SC1=Nc1cc(-n2c(=O)cc(C(F)(F)F)n(C)c2=O)c(F)cc1Cl` (stereo not shown) [Compound 93, 2-Fluoroethyl 2-{{2-chloro-5-[3,6-dihydro-3-methyl-2,6-dioxo-4-(trifluoromethyl)-1(2H)-pyrimidinyl]-4-fluorophenyl}imino}-3-methyl-4-oxo-5-thiazolidineacetate] was tested, and the “Herbicidal rating CYPSE” value (CYPSE (Flatsedge) [1]; Rate 0.0313 kg/ha) was 0.0, the “Herbicidal rating CYPSE” value (CYPSE (Flatsedge) [1]; Rate 0.0625 kg/ha) was 0.0 and the “Herbicidal rating CYPSE” value (CYPSE (Flatsedge) [1]; Rate 0.1250 kg/ha) was 5.0. For the same molecule, the “Herbicidal rating CYPSE” value (CYPSE (Flatsedge) [1]; Rate 0.2500 kg/ha) was 9.0, the ZEAMX herbicidal rating (ZEAMX (Corn, Field); rate 0.0158 kg/ha) was 7.5 and the ZEAMX herbicidal rating (ZEAMX (Corn, Field); rate 0.0315 kg/ha) was 7.5. The ZEAMX herbicidal rating (ZEAMX (Corn, Field); rate 0.0630 kg/ha) was 8.0, the “CYPSE herbicidal effect rating” value (CYPSE (Flatsedge) [2]; 0.0313 kg/ha) was 0.0 and the “CYPSE herbicidal effect rating” value (CYPSE (Flatsedge) [2]; 0.0625 kg/ha) was 0.0. For the same molecule, the “CYPSE herbicidal effect rating” value (CYPSE (Flatsedge) [2]; 0.1250 kg/ha) was 5.0, the “CYPSE herbicidal effect rating” value (CYPSE (Flatsedge) [2]; 0.2500 kg/ha) was 9.0 and the AMBEL herbicidal rating (AMBEL (Ragweed, Common) [3]; rate 0.0158 kg/ha) was 9.0. The AMBEL herbicidal rating (AMBEL (Ragweed, Common) [3]; rate 0.0315 kg/ha) was 9.0, the AMBEL herbicidal rating (AMBEL (Ragweed, Common) [3]; rate 0.0630 kg/ha) was 9.0 and the ORYSAT herbicidal rating (ORYSAT (Rice, Tebonnet); rate 0.0158 kg/ha) was 1.0. The ORYSAT herbicidal rating (ORYSAT (Rice, Tebonnet); rate 0.0315 kg/ha) was 4.0, the ORYSAT herbicidal rating (ORYSAT (Rice, Tebonnet); rate 0.0630 kg/ha) was 6.0 and the AMBEL rating (AMBEL (Ragweed, Common) [4]; 0.0313 kg/ha) was 0.0. For the same molecule, the AMBEL rating (AMBEL (Ragweed, Common) [4]; 0.0625 kg/ha) was 0.0, the AMBEL rating (AMBEL (Ragweed, Common) [4]; 0.1250 kg/ha) was 9.0 and the AMBEL rating (AMBEL (Ragweed, Common) [4]; 0.2500 kg/ha) was 9.0. It also gave a GALAP rating (GALAP (Galium); 0.0313 kg/ha) of 0.0, a GALAP rating (GALAP (Galium); 0.0625 kg/ha) of 0.0 and a GALAP rating (GALAP (Galium); 0.1250 kg/ha) of 9.0. It also gave a GALAP rating (GALAP (Galium); 0.2500 kg/ha) of 9.0, a CASOB rating (CASOB (Sicklepod); 0.0313 kg/ha) of 0.0 and a CASOB rating (CASOB (Sicklepod); 0.0625 kg/ha) of 0.0. For the same molecule, the CASOB rating (CASOB (Sicklepod); 0.1250 kg/ha) was 0.0, the CASOB rating (CASOB (Sicklepod); 0.2500 kg/ha) was 9.0 and the GLXMAW herbicidal rating ([5]; rate 0.0158 kg/ha) was 8.5. It also gave a GLXMAW herbicidal rating ([5]; rate 0.0315 kg/ha) of 9.0, a GLXMAW herbicidal rating ([5]; rate 0.0630 kg/ha) of 9.0 and an ABUTH herbicidal rating (ABUTH (Velvetleaf); rate 0.0158 kg/ha) of 9.0. For the same molecule, the ABUTH herbicidal rating (ABUTH (Velvetleaf); rate 0.0315 kg/ha) was 9.0, the ABUTH herbicidal rating (ABUTH (Velvetleaf); rate 0.0630 kg/ha) was 9.0 and the CHEAL herbicidal rating ([6]; rate 0.0158 kg/ha) was 4.0. It also gave a CHEAL herbicidal rating ([6]; rate 0.0315 kg/ha) of 4.0, a CHEAL herbicidal rating ([6]; rate 0.0630 kg/ha) of 9.0 and a CHEAL rating ([7]; 0.0313 kg/ha) of 3.0. For the same molecule, the CHEAL rating ([7]; 0.0625 kg/ha) was 9.0, the CHEAL rating ([7]; 0.1250 kg/ha) was 9.0 and the CHEAL rating ([7]; 0.2500 kg/ha) was 9.0. For the same molecule, the ECHCG herbicidal rating (ECHCG (Barnyardgrass); rate 0.0158 kg/ha) was 0.0, the ECHCG herbicidal rating (ECHCG (Barnyardgrass); rate 0.0315 kg/ha) was 2.0 and the ECHCG herbicidal rating (ECHCG (Barnyardgrass); rate 0.0630 kg/ha) was 7.0. For the same molecule, the “Herbicidal rating CYPIR” value (CYPIR (Rice Flatsedge); Rate 0.0313 kg/ha) was 0.0, the “Herbicidal rating CYPIR” value (CYPIR (Rice Flatsedge); Rate 0.0625 kg/ha) was 0.0 and the “Herbicidal rating CYPIR” value (CYPIR (Rice Flatsedge); Rate 0.1250 kg/ha) was 0.0. For the same molecule, the “Herbicidal rating CYPIR” value (CYPIR (Rice Flatsedge); Rate 0.2500 kg/ha) was 0.0.
